The source of these data is US20140017302A1, “OPTIMISED PREPARATIONS OF HIGHLY ADAPTABLE AGGREGATES” (priority 2011, published 2014).

The conditions of data set [1]: cited from earlier work; for pK (first value): buffer/salt of Table 1.
A short description of data set [2]: Vesicularisation time: sonication of a crude suspension until opalescent/transparent, followed by turbidity. Type of data set: physicochemical. From the text: The term aggregate “adaptability” is herein closely related to “deformability” and can be measured using previously described methods (e.g. Wachter et al., 2008, J. Drug Targeting 16: 611). In principle, most of these methods assess the penetration of a nanoporous, semipermeable barrier by the tested aggregates in a suspension, presuming no significant aggregate fragmentation during penetration. In an alternative method, the kinetics of aggregate fragmentation under greater external stress is studied, e.g., during ultrasonication. An aggregate is considered to have an ultradeformable bilayer for purposes of the invention if its adaptability is close to or at about the highest value achievable without an appreciable, and normally spontaneous, aggregate fragmentation into smaller structures, e.g. micelles.
The term “vesicularisation time” refers to the time required to transform an originally opaque suspension (i.e. having an optical density >>3) to an opalescent/transparent suspension with a much lower optical density using external stress, e.g. generated with an ultrasound transducer, high-shear homogeniser (Ultra-Turrax®, IKA) or rotor-stator homogeniser. […]
A first consideration is that the chosen pH is far enough from the tested aggregate surface pKa,mem to exclude ionisation changes during a test; otherwise, experiments must be conducted at two or more constant, yet different, pH values and then analysed together allowing for the pH effects. […]
In a simpler and more qualitative alternative assay, one compares the test sample turbidity with an appropriate opalescent/transparent reference suspension turbidity. A series of readings taken for each representative sample at different times can likewise reveal temporal stability. Experimental data generated with this method confirmed the independency of the conclusions drawn from individual turbidity readouts for the preparations of the invention: within experimental error limits, the difference between the time required to generate more or less, but always similarly turbid suspension is generally the same. […]

A short description of data set [3]: Drug payload limit: terbinafine concentration at minimum vesicularisation time (FIG. 1 inset). Type of data set: physicochemical. To be noted: for payload (concentration at minimum vesicularisation time): phosphatidylcholine vesicles + 5 wt.-% ethanol, azeleate buffer 0.05 M. From the text:
FIG. 1 is a schematic representation of experiments carried out to show an effect of buffer (ionic additive) selection on the vesicularisation time of reference (i.e. containing >90% pure soybean phosphatidylcholine) vesicles and of vesicles loaded with terbinafine as a function of the bulk pH. The results of an additional test series, in which an increasing amount of terbinafine was incorporated into phosphatidylcholine vesicles (at 10 wt-%-terbinafine concentration+5 wt.-% ethanol) dispersed in azeleate buffer (0.05 M) are shown in the Inset for pH=4.55±0.1 (diamonds) and pH=3.6±0.1 (down-arrow).

[4] abbreviates: T=310 K, phospholipid plus drug ~10 w-%.

`OCCN(CCO)C(CO)(CO)CO` [Bis-TRIS]: the pK1 in data set [1] (buffer of Table 4) was 6.5.

In the case of `O=S(=O)(O)CCN1CCN(CCS(=O)(=O)O)CC1` [PIPES], in data set [1] (buffer of Table 4), the pK1 is 7.1 and the pK2 is listed as 0.4.

Regarding `O=C1CC[C@@H](C(=O)O)N1` [Pyroglutamic acid (pidolic acid), Pyroglutamic acid], the “pK (first value)” value in data set [1] was 3.5.

As for `O=S(=O)(O)CCN1CCN(CCO)CC1` [HEPES], in data set [1] (buffer of Table 4), the pK1 is 7.6 and the pK2 was 1.7.

`O=C(O)CN(CCO)CCO` [Bicine]: in data set [1] (buffer of Table 4), the pK1 is listed as 8.5 and the pK2 is listed as 1.9.

For `CN(C/C=C/C#CC(C)(C)C)Cc1cccc2ccccc12` [terbinafine], in data set [2] (10 wt.-% total amphipat including 20 rel-% terbinafine, phosphate buffer, pH~4.4), the vesicularisation time entry is on record as “exceeds 200 s”. For the same compound, in data set [2] (terbinafine + phosphatidylcholine, 0.1 M phosphate buffer, pH=5.7, fails to produce small aggregates above the precipitate), the “sonication time (vesicularisation time)” value is “exceeding 1400 s”. In data set [2] (terbinafine + phosphatidylcholine, phosphate buffer, pH=5.2), the “time needed to prepare drug-loaded aggregates” value is reported as “around 700 s”. In data set [3] (aggregate suspensions in phosphate buffer of comparable pH), the “payload limit (concentration at minimum vesicularisation time)” value was less than 10 wt.-%. For the same compound, the “higher payload in azeleate buffer compared with phosphate buffer” value in data set [3] (comparable pH) was “at least 50%”. Moreover, the “payload (concentration at minimum vesicularisation time)” value in data set [3] (pH=3.6) is recorded as approximately 20%. For the same compound, the “payload (concentration at minimum vesicularisation time)” value in data set [3] (pH=4.55) is approximately 15%. In data set [1] (setting [4]), the “de/protonation constant in a membrane, pKa,mem” value was 5.5; the “de/protonation constant in the bulk, pK” value was 7.05; the “water-membrane partition ratio, ionised drug form, log Pmem^I” value is reported as 3.78; the “water-membrane partition ratio, neutral drug form, log Pmem^N” value is recorded as 5.19.

Consider `Cl` [Hydrochloric acid, sodium, Hydrochloric acid], for which, in data set [1], the “pK (first value)” value is −9.3.

Turning to `O=C(O)[C@H](O)[C@@H](O)[C@H](O)[C@H](O)CO` [Gluconic acid], in data set [1], the “pK (first value)” value is listed as 3.6.

For the compound `NCCCC[C@H](N)C(=O)O` [Lysine], in data set [1] (buffer of Table 4), the pK1 was 10.5, the pK2 is given as 9.1 and the pK3 is 2.2.

As to `CCNCC` [Diethylamine], the pK1 in data set [1] (buffer of Table 4) was 10.6.

`C[N+](C)(C)CCO.[Cl-]` [Choline, chloride]: in data set [1] (buffer of Table 4), the pK1 is 13.9.

In the case of `[Na+].[OH-]` [Sodium hydroxyde, NaCl, Sodium hydroxyde], the “pK (first value)” value in data set [1] is 13.0.

For `Cc1ccc(S(=O)(=O)O)cc1` [p-Toluenesulfonic acid], the “pK (first value)” value in data set [1] is listed as 0.7.

Turning to `CC(=O)O` [Acetic acid], the “pK (first value)” value in data set [1] is given as 4.8.

For `O=C(O)CNC(CO)(CO)CO` [Tricine], in data set [1] (buffer of Table 4), the pK1 is 8.2 and the pK2 is 2.3.

As to `OCCN1CCCC1` [1-Pyrrolidineethanol (epolamine), 1-Pyrrolidineethanol], the pK1 in data set [1] (buffer of Table 4) is 9.8. Also, the “pK (first value)” value in data set [1] was 9.8.

`O=C(O)CCCCCCCC(=O)O` [azaleic acid, Azelaic acid]: in data set [1], the “log P” value is reported as more than 1.

As for `O=S(=O)(O)O` [Sulphuric acid], in data set [1] (buffer of Table 4), the pK1 is listed as −3 and the pK2 is listed as 1.9.

In the case of `O=C(c1ccccc1)c1ccc2n1CCC2C(=O)O` (stereo not drawn) [ketorolac, reference compound], in data set [1] (best estimates), the “log Pmem^I” value is on record as approximately 0.8, the “log Pmem^N” value is listed as approximately 2.3, the pK is 3.5 and the “pKa,mem” value is recorded as approximately 5.5.

As for `c1c[nH]cn1` [Imidazole], in data set [1] (buffer of Table 4), the pK1 was 14.5 and the pK2 is 6.9. The “pK (first value)” value in data set [1] was 6.9.

As for `OCCN1CCOCC1` [Morpholinoethanol], the pK1 in data set [1] (buffer of Table 4) was 7.4. In data set [1], the “pK (first value)” value is listed as 7.4.

In general, log P refers to a log measure of how a compound divides between an organic and an aqueous phase.
